Key:
intracellular HBV DNA = assay: Real-time PCR for intracellular HBV DNA in HepAD38 cells; assay type: cell-based; details: Hepatitis B virus, HePAD38, 65 h, 65 hours treatment
Experimental: HepAD38 cells were cultured in DMEM medium (Welgene) supplemented with 200 unit/mL penicillin, 200 μg/mL streptomycin, and 10% FBS. During maintenance and passage, the cells were cultured together with 0.4 μg/mL tetracycline. Two days before the treatment with compounds for inducing HBV replication was started, the medium was replaced with a tetracycline-free complete growth medium. […]
HepAD38 cells were treated with a compound for 65 hours and then recovered, and intracellular HBV DNA was extracted therefrom according to the protocol in the DNeasy Blood & Tissue Kit (Qiagen). The primers and probes used to quantify HBV DNA were 5′-[…]-3′, 5′-[…]-3′, and 5′-/56-FAM/TGT CCT GGT/ZEN/TAT CGC TGG ATG TGT CT/3IABkFQ/-3′. The HBV DNA was amplified by real-time PCR assay using LightCycler 480 (Roche) (J. Virol., 2018, 92(16):e00339-18). All of the processes were confirmed in duplicate.

[1] = Cell viability assay (EZ-Cytox), cytotoxicity; assay type: cell-based; details: human, HepAD38 cells; for viability at 65 h, 100 µM: read-out: Cytotoxicity % Livability (@100 μM)
Experimental: HepAD38 cells were cultured for 2 days in Dulbecco's Modified Eagle's medium (Welgene, LM001-05) supplemented with 10% FBS without tetracycline. […] After 65 hours of treatment, viability was measured using EZ-Cytox cell viability assay kit (Daeil Lab Service) according to the manufacturer's instructions. The absorbance was measured at 450 nm using a spectrophotometer (Spark, Tecan).

Compound | IC50 (intracellular HBV DNA) [µM] | CC50 at 65 h [1] [µM] | viability at 65 h, 100 µM [1] [%]
COc1ncc(N(Cc2cc(C(F)(F)F)[nH]n2)C(=O)Nc2nccc(-n3ccnc3)c2F)cn1 [Example 3, 3-(3-fluoro-4-(1H-imidazol-1-yl)pyridin-2-yl)-1-(2-methoxypyrimidin-5-yl)-1-((5-(trifluoromethyl)-1H-pyrazol-3-yl)methyl)urea] | > 1.1 | > 100 | 74.2
COc1ncc(N(Cc2cc(C(F)(F)F)[nH]n2)C(=O)NC23CC(Cl)(C2)C3)cn1 [Example 6, 3-(3-chlorobicyclo[1.1.1]pentan-1-yl)-1-(2-methoxypyrimidin-5-yl)-1-((5-(trifluoromethyl)-1H-pyrazol-3-yl)methyl)urea] | > 1.1 | > 100 | 100
COc1ncc(N(Cc2cc(C(F)(F)F)[nH]n2)C(=O)Nc2ccc(C#N)c(Cl)c2)cn1 [Example 7, 3-(3-chloro-4-cyanophenyl)-1-(2-methoxypyrimidin-5-yl)-1-((5-(trifluoromethyl)-1H-pyrazol-3-yl)methyl)urea] | 0.019 | > 100 | 59.3
COc1ncc(N(Cc2cc(C#N)[nH]n2)C(=O)Nc2ccc(C#N)c(Cl)c2)cn1 [Example 9] | 0.31 | > 100 | 105
COc1ncc(N(Cc2cc(C(F)(F)F)[nH]n2)C(=O)Nc2cc(F)c(F)c(Cl)n2)cn1 [Example 13, 3-(6-chloro-4,5-difluoropyridin-2-yl)-1-(2-methoxypyrimidin-5-yl)-1-((5-(trifluoromethyl)-1H-pyrazol-3-yl)methyl)urea] | 0.21 | > 100 | 100
CS(=O)(=O)Nc1ccc(N(Cc2n[nH]c3c2CCOC3)C(=O)Nc2ccc(F)c(Cl)c2)cc1 [Example 16, N-(4-(3-(3-chloro-4-fluorophenyl)-1-((1,4,5,7-tetrahydropyrano[3,4-c]pyrazol-3-yl)methyl)ureido)phenyl)methanesulfonamide] | > 1.1 | 97.6 | –
CS(=O)(=O)Nc1ccc(N(Cc2n[nH]c3c2CCOC3)C(=O)Nc2ccc(F)c(Cl)c2)cn1 [Example 17, N-(5-(3-(3-chloro-4-fluorophenyl)-1-((1,4,5,7-tetrahydropyrano[3,4-c]pyrazol-3-yl)methyl)ureido)pyridin-2-yl)methanesulfonamide] | > 1.1 | > 100 | –
CS(=O)(=O)Nc1ccc(N(Cc2n[nH]c3c2CCCO3)C(=O)Nc2ccc(F)c(Cl)c2)cn1 [Example 18, N-(5-(3-(3-chloro-4-fluorophenyl)-1-((1,4,5,6-tetrahydropyrano[2,3-c]pyrazol-3-yl)methyl)ureido)pyridin-2-yl)methanesulfonamide] | > 1.1 | > 100 | –
CS(=O)(=O)Nc1ccc(N(Cc2n[nH]c3c2CCCO3)C(=O)Nc2ccc(F)c(Cl)c2)cc1 [Example 19, N-(4-(3-(3-chloro-4-fluorophenyl)-1-((1,4,5,6-tetrahydropyrano[2,3-c]pyrazol-3-yl)methyl)ureido)phenyl)methanesulfonamide] | > 1.1 | > 100 | –
CC(=O)c1ccc(N(Cc2n[nH]c3c2CCCO3)C(=O)Nc2ccc(F)c(Cl)c2)cn1 [Example 20, 1-(6-acetylpyridin-3-yl)-3-(3-chloro-4-fluorophenyl)-1-((1,4,5,6-tetrahydropyrano[2,3-c]pyrazol-3-yl)methyl)urea] | > 1.1 | > 100 | –
CC(=O)c1ccc(N(Cc2n[nH]c3c2CCOC3)C(=O)Nc2ccc(F)c(Cl)c2)cn1 [Example 21, 1-(6-acetylpyridin-3-yl)-3-(3-chloro-4-fluorophenyl)-1-((1,4,5,7-tetrahydropyrano[3,4-c]pyrazol-3-yl)methyl)urea] | > 1.1 | > 100 | –
CNS(=O)(=O)c1ccc(N(Cc2n[nH]c3c2CCOC3)C(=O)Nc2ccc(F)c(Cl)c2)cc1 [Example 23, 4-(3-(3-chloro-4-fluorophenyl)-1-((1,4,5,7-tetrahydropyrano[3,4-c]pyrazol-3-yl)methyl)ureido)-N-methylbenzenesulfonamide] | > 1.1 | > 100 | –
Cn1cc(N(Cc2n[nH]c3c2CCCC3)C(=O)Nc2ccc(F)c(Cl)c2)cn1 [Example 24, 3-(3-chloro-4-fluorophenyl)-1-(1-methyl-1H-pyrazol-4-yl)-1-((4,5,6,7-tetrahydro-1H-indazol-3-yl)methyl)urea] | 0.16 | > 100 | 53.4
Cn1ccc(N(Cc2n[nH]c3c2CCCO3)C(=O)Nc2ccc(F)c(Cl)c2)n1 [Example 25, 3-(3-chloro-4-fluorophenyl)-1-(1-methyl-1H-pyrazol-3-yl)-1-((1,4,5,6-tetrahydropyrano[2,3-c]pyrazol-3-yl)methyl)urea] | > 1.1 | > 100 | 100
Cc1cc(N(Cc2n[nH]c3c2CCCO3)C(=O)Nc2ccc(F)c(Cl)c2)no1 [Example 26, 3-(3-chloro-4-fluorophenyl)-1-(5-methylisoxazol-3-yl)-1-((1,4,5,6-tetrahydropyrano[2,3-c]pyrazol-3-yl)methyl)urea] | > 1.1 | > 100 | 93
COc1ncc(N(Cc2cc(C(F)(F)F)[nH]n2)C(=O)Nc2ccc(F)c(Cl)c2)c(C)n1 [Example 28, 3-(3-chloro-4-fluorophenyl)-1-(2-methoxy-4-methylpyrimidin-5-yl)-1-((5-(trifluoromethyl)-1H-pyrazol-3-yl)methyl)urea] | 0.06 | 47.2 | 7
COc1ncc(N(Cc2cc(C(F)(F)F)[nH]n2)C(=O)Nc2ccnc(C(F)F)c2F)cn1 [Example 211, 3-(2-(difluoromethyl)-3-fluoropyridin-4-yl)-1-(2-methoxypyrimidin-5-yl)-1-((5-(trifluoromethyl)-1H-pyrazol-3-yl)methyl)urea] | 0.031 | – | –
COc1ncc(NC(=O)N(Cc2cc(C(F)(F)F)[nH]n2)c2cnc(OC)nc2)cn1 [Example 216, 1,3-bis(2-methoxypyrimidin-5-yl)-1-((5-(trifluoromethyl)-1H-pyrazol-3-yl)methyl)urea] | > 1.1 | – | –
COc1ncc(N(Cc2cc(C(F)(F)F)[nH]n2)C(=O)NC23CC(C)(C2)C3)cn1 [Example 217, 1-(2-methoxypyrimidin-5-yl)-3-(3-methylbicyclo[1.1.1]pentan-1-yl)-1-((5-(trifluoromethyl)-1H-pyrazol-3-yl)methyl)urea] | > 1.1 | – | –
COc1ncc(N(Cc2cc(C(F)(F)F)[nH]n2)C(=O)Nc2cnc(SC)nc2)cn1 [Example 218, 1-(2-methoxypyrimidin-5-yl)-3-(2-(methylthio)pyrimidin-5-yl)-1-((5-(trifluoromethyl)-1H-pyrazol-3-yl)methyl)urea] | > 1.1 | – | –
COc1ncc(N(Cc2cc(C(F)F)[nH]n2)C(=O)Nc2cc(F)c(F)c(F)c2)cn1 [Example 220, 1-((5-(difluoromethyl)-1H-pyrazol-3-yl)methyl)-1-(2-methoxypyrimidin-5-yl)-3-(3,4,5-trifluorophenyl)urea] | 0.048 | – | –
COc1ncc(N(Cc2cc(C(F)(F)F)[nH]n2)C(=O)Nc2nc(F)c(F)cc2F)cn1 [Example 221, 1-(2-methoxypyrimidin-5-yl)-1-((5-(trifluoromethyl)-1H-pyrazol-3-yl)methyl)-3-(3,5,6-trifluoropyridin-2-yl)urea] | > 1.1 | – | –
